Converted amounts (≈) assume the structure as drawn.

Format in all cases: functional
The subject of test [1] is Candida albicans. Put plainly: Antimicrobial activity against Candida albicans B311.
Test [2] has as its system Staphylococcus aureus. Briefly: Antimicrobial activity against Staphylococcus aureus NCTC 8530.
For test [3], the system named is Escherichia coli. Put plainly: Antimicrobial activity against Escherichia coli IFO 3545.
Test [4] deals with Bacillus subtilis. Put plainly: Antimicrobial activity against Bacillus subtilis IFO 3007.
For test [5], the system named is Saccharomyces cerevisiae. Briefly: Antimicrobial activity against Saccharomyces cerevisiae IFO 0203.

In the case of `Cc1ccnc2c1C(=O)c1ccccc1-2` [ONYCHINE], the MIC turned out to be 3.12 µg/mL (≈ 16 µM) in test [1]; 50 µg/mL (≈ 256 µM) in test [2]; 50 µg/mL (≈ 256 µM) in test [3]; 50 µg/mL (≈ 256 µM) in test [4]; 50 µg/mL (≈ 256 µM) in test [5].

The values are drawn from ChEMBL document CHEMBL1649342, “Synthesis of azafluorenone antimicrobial agents” (2010).
